In US10618918B2, “Substituted boronic acids as antimicrobials” (priority 2015, dated 2020):
Read-outs that look alike come from different tables or passages of the source.

How the values were obtained:
KP1004 KPC-2 [1] = assay: Biapenem potentiation (MPC@1), strain KP1004 KPC-2; format: cell-based; details: minimum BLI concentration inhibiting growth with biapenem 1 μg/mL; tested up to 40 μg/mL
Experimental: (§1) Biapenem was present in the test medium at 1 μg/mL. […] Table 3 summarizes the BLI potency of biapenem potentiation (MPC@1) for two strains overexpressing class A (KPC) and class D (OXA-48) carbapenemases. Biapenem MIC for each strain is also shown.

KP1086 OXA-48 = assay: Biapenem potentiation (MPC@1), strain KP1086 OXA-48; format: cell-based; details: minimum BLI concentration inhibiting growth with biapenem 1 μg/mL; tested up to 40 μg/mL
Experimental: as §1

AB1053 OXA-72 = assay: Meropenem potentiation (MPC@8), strain AB1053 OXA-72; format: cell-based, Acinetobacter baumannii; details: minimum BLI concentration inhibiting growth with meropenem 8 μg/mL; tested up to 20 μg/mL
AB1054 OXA-23 = assay: Meropenem potentiation (MPC@8), strain AB1054 OXA-23; format: cell-based, Acinetobacter baumannii; details: minimum BLI concentration inhibiting growth with meropenem 8 μg/mL; tested up to 20 μg/mL
[2] = target: T1, purified class A, C and D enzymes (β-lactamases) (Acinetobacter baumannii, UniProt Q9L4P2); assay: biochemical; format: biochemical; details: purified OXA-23; nitrocefin (NCF) as reporter substrate
T1 construct: rows headed: Ki (OXA-23, NCF), uM; other: purified OXA-23; nitrocefin (NCF) as reporter substrate
T1 sequence (Q9L4P2 whole entry): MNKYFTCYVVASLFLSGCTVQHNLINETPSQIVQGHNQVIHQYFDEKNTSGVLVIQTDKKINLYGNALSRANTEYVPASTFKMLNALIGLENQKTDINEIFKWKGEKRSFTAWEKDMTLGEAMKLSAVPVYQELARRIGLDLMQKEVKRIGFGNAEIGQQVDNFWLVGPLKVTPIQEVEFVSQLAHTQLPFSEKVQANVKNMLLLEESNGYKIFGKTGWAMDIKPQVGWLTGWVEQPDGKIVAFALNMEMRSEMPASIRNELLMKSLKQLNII

[3] = target: purified class A, C and D enzymes (β-lactamases) (Enterobacter cloacae, UniProt P05364); assay: biochemical; format: biochemical
Chain of purified class A, C and D enzymes (β-lactamases) (Enterobacter cloacae, UniProt P05364) (P05364 21-381): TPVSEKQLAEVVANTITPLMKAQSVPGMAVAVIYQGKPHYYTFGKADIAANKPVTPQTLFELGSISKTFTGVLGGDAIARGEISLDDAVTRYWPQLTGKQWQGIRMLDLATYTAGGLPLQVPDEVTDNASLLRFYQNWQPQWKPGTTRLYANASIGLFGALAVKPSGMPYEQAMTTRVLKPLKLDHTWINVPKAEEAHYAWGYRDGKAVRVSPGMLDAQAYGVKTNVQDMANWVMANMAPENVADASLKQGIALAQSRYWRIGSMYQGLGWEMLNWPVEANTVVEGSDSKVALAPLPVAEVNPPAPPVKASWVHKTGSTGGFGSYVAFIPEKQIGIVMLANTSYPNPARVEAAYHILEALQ

[4] = target: purified class A, C and D enzymes (β-lactamases) (Escherichia coli, UniProt Q9L5C7); assay: biochemical; format: biochemical; details: purified CTX-M-14; nitrocefin (NCF) as reporter substrate
Chain of purified class A, C and D enzymes (β-lactamases) (Escherichia coli, UniProt Q9L5C7) (Q9L5C7 entry or part of it): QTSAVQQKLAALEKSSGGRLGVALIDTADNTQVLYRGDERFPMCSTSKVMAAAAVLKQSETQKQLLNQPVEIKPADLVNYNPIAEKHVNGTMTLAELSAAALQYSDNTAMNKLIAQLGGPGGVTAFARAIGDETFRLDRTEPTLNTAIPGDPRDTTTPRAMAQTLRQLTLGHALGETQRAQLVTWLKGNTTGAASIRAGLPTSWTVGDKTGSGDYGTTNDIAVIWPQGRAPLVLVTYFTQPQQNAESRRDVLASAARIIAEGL

[5] = target: purified class A, C and D enzymes (β-lactamases) (Klebsiella pneumoniae, UniProt Q6XEC0); assay: biochemical; format: biochemical; details: purified OXA-48; nitrocefin (NCF) as reporter substrate
[6] = target: purified class A, C and D enzymes (β-lactamases) (Klebsiella pneumoniae, UniProt Q9F663); assay: biochemical; format: biochemical; details: purified KPC-2; nitrocefin (NCF) as reporter substrate
[7] = target: T2, purified class A, C and D enzymes (β-lactamases) (Pseudomonas aeruginosa, UniProt P24735); assay: biochemical; format: biochemical
T2 construct: rows headed: Ki (Pa-AmpC, NCF), uM; other: purified Pa-AmpC; nitrocefin (NCF) as reporter substrate
T2 sequence (P24735 whole entry): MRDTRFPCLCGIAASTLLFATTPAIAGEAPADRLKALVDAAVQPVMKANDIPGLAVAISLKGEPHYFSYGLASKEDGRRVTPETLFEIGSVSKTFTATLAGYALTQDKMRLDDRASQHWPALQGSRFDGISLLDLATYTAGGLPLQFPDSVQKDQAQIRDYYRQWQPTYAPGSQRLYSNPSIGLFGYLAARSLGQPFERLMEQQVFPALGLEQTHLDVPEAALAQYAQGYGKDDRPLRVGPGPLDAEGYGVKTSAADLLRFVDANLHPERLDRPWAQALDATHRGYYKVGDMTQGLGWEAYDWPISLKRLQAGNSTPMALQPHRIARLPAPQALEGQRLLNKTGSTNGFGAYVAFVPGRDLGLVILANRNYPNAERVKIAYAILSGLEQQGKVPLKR

ECL1002 = assay: Aztreonam potentiation (MPC@4), strain ECL1002; details: minimum BLI concentration inhibiting growth with aztreonam 4 μg/mL; tested up to 40 μg/mL
ec308 SHV-5 = assay: Aztreonam potentiation (MPC@4), strain ec308 SHV-5; details: minimum BLI concentration inhibiting growth with aztreonam 4 μg/mL; tested up to 40 μg/mL
ec302 TEM-10 = assay: Aztreonam potentiation (MPC@4), strain ec302 TEM-10; details: minimum BLI concentration inhibiting growth with aztreonam 4 μg/mL; tested up to 40 μg/mL
KP1004 KPC-2 [8] = assay: Aztreonam potentiation (MPC@4), strain KP1004 KPC-2; details: minimum BLI concentration inhibiting growth with aztreonam 4 μg/mL; tested up to 40 μg/mL
EC1010 CMY-6 = assay: Aztreonam potentiation (MPC@4), strain EC1010 CMY-6; details: minimum BLI concentration inhibiting growth with aztreonam 4 μg/mL; tested up to 40 μg/mL
KP1010 SHV-12 = assay: Aztreonam potentiation (MPC@4), strain KP1010 SHV-12; details: minimum BLI concentration inhibiting growth with aztreonam 4 μg/mL; tested up to 40 μg/mL
KP1009 CTX-M-15 = assay: Aztreonam potentiation (MPC@4), strain KP1009 CTX-M-15; details: minimum BLI concentration inhibiting growth with aztreonam 4 μg/mL; tested up to 40 μg/mL
KP1005 CTX-M-14 = assay: Tigemonam potentiation (MPC@4), strain KP1005 CTX-M-14; details: minimum BLI concentration inhibiting growth with tigemonam 4 μg/mL; tested up to 40 μg/mL

SMILES | BPM MPC1 KP1004 KPC-2 (KP1004 KPC-2 [1]) | BPM MPC1 OXA-48 KP1086 (KP1086 OXA-48) | MPM MPC8 AB1053 OXA-72 (AB1053 OXA-72) | MPM MPC8 AB1054 OXA-23 (AB1054 OXA-23) | Ki [2] | Ki (P99, NCF), uM [3] | Ki (CTX-M-14, NCF), uM [4] | Ki (OXA-48, NCF), uM [5] | Ki (KPC-2, NCF), uM [6] | Ki [7] | AZT MPC4 ECL1002 (ECL1002) | AZT MPC4 SHV-5 ec308 (ec308 SHV-5) | AZT MPC4 TEM-10 ec302 (ec302 TEM-10) | AZT MPC4 KPC-2 KP1004 (KP1004 KPC-2 [8]) | AZT MPC4 CMY-6 EC1010 (EC1010 CMY-6) | AZT MPC4 SHV-12 KP1010 (KP1010 SHV-12) | AZT MPC4 CTX-M-15 KP1009 (KP1009 CTX-M-15) | TIG MPC4 CTX-M-14 KP1005 (KP1005 CTX-M-14) | Ki (P99, NCF), uM ([3]; purified P99, nitrocefin (NCF) as reporter substrate) | Ki ([7]; purified Pa-AmpC, nitrocefin (NCF) as reporter substrate, read-out: Ki (Pa-AmpC, NCF))
Nc1nnc(SCc2ccc3c(c2C(=O)[O-])O[B-](O)(O)CC3)s1.[Na+].[Na+] [Compound 22, Disodium; 8-[(5-amino-1,3,4-thiadiazol-2-yl)sulfanylmethyl]-4,4-dihydroxy-5-oxa-4-boranuidabicyclo[4.4.0]deca-1(6),7,9-triene-7-carboxylate] | X (X = MPC@1 ≤ 5 μg/mL) | Y (Y = 5 μg/mL < MPC@1 ≤ 20 μg/mL) | Z (Z = MPC@1 > 20 μg/mL) | Y (Y = 5 μg/mL < MPC@1 ≤ 20 μg/mL) | < 0.1 µM | X (key: X = Ki ≤ 0.1 μM; Y = 0.1 μM < Ki ≤ 1 μM; Z = Ki > 1 μM) | X (X = Ki ≤ 0.1 μM) | X (X = Ki ≤ 0.1 μM) | X (X = Ki ≤ 0.1 μM) | < 0.1 µM | Y (Y = 5 μg/mL < MPC@4 ≤ 20 μg/mL) | Y (Y = 5 μg/mL < MPC@4 ≤ 20 μg/mL) | X (X = MPC@4 ≤ 5 μg/mL) | X (X = MPC@4 ≤ 5 μg/mL) | X (X = MPC@4 ≤ 5 μg/mL) | X (X = MPC@4 ≤ 5 μg/mL) | Y (Y = 5 μg/mL < MPC@4 ≤ 20 μg/mL) | Z (Z = MPC@4 > 20 μg/mL) | – | –
CON=Cc1ccc2c(c1C(=O)[O-])O[B-](O)(O)CC2.[Na+].[Na+] [Compound 55, Disodium; 4,4-dihydroxy-8-(methoxyiminomethyl)-5-oxa-4-boranuidabicyclo[4.4.0]deca-1(6),7,9-triene-7-carboxylate] | X (X = MPC@1 ≤ 5 μg/mL) | X (X = MPC@1 ≤ 5 μg/mL) | Z (Z = MPC@1 > 20 μg/mL) | Z (Z = MPC@1 > 20 μg/mL) | < 0.1 µM | X (key: X = Ki ≤ 0.1 μM; Y = 0.1 μM < Ki ≤ 1 μM; Z = Ki > 1 μM) | X (X = Ki ≤ 0.1 μM) | X (X = Ki ≤ 0.1 μM) | X (X = Ki ≤ 0.1 μM) | < 0.1 µM | X (X = MPC@4 ≤ 5 μg/mL) | X (X = MPC@4 ≤ 5 μg/mL) | X (X = MPC@4 ≤ 5 μg/mL) | X (X = MPC@4 ≤ 5 μg/mL) | X (X = MPC@4 ≤ 5 μg/mL) | X (X = MPC@4 ≤ 5 μg/mL) | X (X = MPC@4 ≤ 5 μg/mL) | Z (Z = MPC@4 > 20 μg/mL) | – | –
NC(=O)COc1ccc2c(c1C(=O)O)OB(O)CC2 [Compound 46, 7-(2-Amino-2-oxo-ethoxy)-2-hydroxy-3,4-dihydro-1,2-benzoxaborinine-8-carboxylic acid] | X (X = MPC@1 ≤ 5 μg/mL) | Y (Y = 5 μg/mL < MPC@1 ≤ 20 μg/mL) | X (X = MPC@1 ≤ 5 μg/mL) | Y (Y = 5 μg/mL < MPC@1 ≤ 20 μg/mL) | < 0.1 µM | – | X (X = Ki ≤ 0.1 μM) | X (X = Ki ≤ 0.1 μM) | X (X = Ki ≤ 0.1 μM) | – | X (X = MPC@4 ≤ 5 μg/mL) | X (X = MPC@4 ≤ 5 μg/mL) | X (X = MPC@4 ≤ 5 μg/mL) | X (X = MPC@4 ≤ 5 μg/mL) | X (X = MPC@4 ≤ 5 μg/mL) | X (X = MPC@4 ≤ 5 μg/mL) | X (X = MPC@4 ≤ 5 μg/mL) | Z (Z = MPC@4 > 20 μg/mL) | X (X = Ki ≤ 0.1 μM) | < 0.1 µM
O=C([O-])c1cncc2c1O[B-](O)(O)CC2.[Na+].[Na+] [Compound 59, Disodium; 4,4-dihydroxy-5-oxa-9-aza-4-boranuidabicyclo[4.4.0]deca-1(6),7,9-triene-7-carboxylate] | X (X = MPC@1 ≤ 5 μg/mL) | X (X = MPC@1 ≤ 5 μg/mL) | Y (Y = 5 μg/mL < MPC@1 ≤ 20 μg/mL) | Z (Z = MPC@1 > 20 μg/mL) | > 1 µM | Z (key: X = Ki ≤ 0.1 μM; Y = 0.1 μM < Ki ≤ 1 μM; Z = Ki > 1 μM) | X (X = Ki ≤ 0.1 μM) | X (X = Ki ≤ 0.1 μM) | X (X = Ki ≤ 0.1 μM) | 0.1 to 1 µM | Z (Z = MPC@4 > 20 μg/mL) | Y (Y = 5 μg/mL < MPC@4 ≤ 20 μg/mL) | X (X = MPC@4 ≤ 5 μg/mL) | X (X = MPC@4 ≤ 5 μg/mL) | Y (Y = 5 μg/mL < MPC@4 ≤ 20 μg/mL) | X (X = MPC@4 ≤ 5 μg/mL) | Y (Y = 5 μg/mL < MPC@4 ≤ 20 μg/mL) | Z (Z = MPC@4 > 20 μg/mL) | – | –
NCCCSCc1ccc2c(c1C(=O)[O-])O[B-](O)(O)CC2.[Na+].[Na+] [Compound 21, Disodium; 8-(3-aminopropylsulfanylmethyl)-4,4-dihydroxy-5-oxa-4-boranuidabicyclo[4.4.0]deca-1(6),7,9-triene-7-carboxylate] | X (X = MPC@1 ≤ 5 μg/mL) | X (X = MPC@1 ≤ 5 μg/mL) | X (X = MPC@1 ≤ 5 μg/mL) | X (X = MPC@1 ≤ 5 μg/mL) | < 0.1 µM | X (key: X = Ki ≤ 0.1 μM; Y = 0.1 μM < Ki ≤ 1 μM; Z = Ki > 1 μM) | X (X = Ki ≤ 0.1 μM) | X (X = Ki ≤ 0.1 μM) | X (X = Ki ≤ 0.1 μM) | < 0.1 µM | Y (Y = 5 μg/mL < MPC@4 ≤ 20 μg/mL) | Y (Y = 5 μg/mL < MPC@4 ≤ 20 μg/mL) | Y (Y = 5 μg/mL < MPC@4 ≤ 20 μg/mL) | X (X = MPC@4 ≤ 5 μg/mL) | X (X = MPC@4 ≤ 5 μg/mL) | X (X = MPC@4 ≤ 5 μg/mL) | Y (Y = 5 μg/mL < MPC@4 ≤ 20 μg/mL) | Z (Z = MPC@4 > 20 μg/mL) | – | –
